# “And” between values parts separate entries of the source, which are not always exact repeats. Equal values may be shown once. “Also recorded” adds a separate entry of the source.
# How the values were obtained:
# HIV-1 = test: Synthesis of HIV-1 particles in J1.1 cells (end-point titration, TCID50); type: cell-based; details: for percentage of inhibition of HIV-1 particles synthesis: 48 hours
# Protocol: This set of experiments was carried out with the J1.1 cell line, a latently […] cell line derived from the parental cell line Jurkat E6.1. J1.1 cells were resuspended at a density of 10^6 cells/ml in culture medium (RPMI-1640 supplemented with 10% FBS) and were stimulated with the phorbol ester PM-A (20 ng/ml) in the absence or the presence of increasing concentrations of LTB4 (0,30, 100 nM). LTB4 was again added (to the same concentrations) 24 hours after the initiation of the cultures.
# End-point titration was carried out in flat-bottom microtiter wells using four parallel series of ten-fold dilutions of cell-free supernatants. After 5 to 7 days of incubation with MT-4 cells, cell-free supernatants were harvested and tested for the major viral core p24 protein by a commercially available enzymatic assay. The TCID50 was calculated by the method of Reed and Muench.
# [1] = system: influenza virus (strain A/Pr/8/34); test: Influenza infection in lungs of mice; type: in vivo; details: LTB4 1, 10 and 100 ng/dose intranasal, days 1 to 5, day 6
# Protocol: BALB/c mice (6-8 week old) were infected (n=6/group) by delivering 10 PFU of influenza virus (strain A/Pr/8/34) in the nasal cavity. On days 1 to 5 post-infection, mice were treated intranasally with a placebo or with varying doses of LTB4 (1, 10 and 100 ng/dose). On the 6th day post-infection, all mice were sacrificed and influenza viral loads in lungs were determined using the MDCK cell line.
# HSV-1 (strain McIntyre) = test: Detection of specific HSV-1 antigen in HSV-1-infected PBMC (immunofluorescence); type: cell-based, human; details: specific antiserum from a chronically infected donor
# Protocol: Synthesis of the viral antigen was inhibited by 60% in the presence of 100 nM LTB4 (FIG. 4). The results illustrated in FIG. 4 are representative of five (5) other experiments.
# PBMC were infected with EBV and HSV-1 and treated or not with 100 nM of analogs of LTB4 such as 20-OH-LTB4, LTA3 methyl ester, 12(R)-HETE and 5(S), 15(S)-diHETE. After six days of culture, the presence of EBNA antigen (a consequence of EBV infection) was evaluated by the ACIF test, as described in Example I. Similarly, the presence of HSV-1 antigen in PBMC was evaluated by immunofluorescence using an antiserum obtained from a chronically infected donor as described above in section entitled “Detection of Specific HSV-1 Antigen”. […] The results illustrated in Table 1 are representative of three other experiments.
# HSV-1 = test: Synthesis of HSV-1 particles in Vero cells; details: concentration not stated (summary)
# EBV = test: Synthesis of EBV particles in B95-8 cells; details: for inhibition of production of EBV particles (decrease of EBNA antigen positive cells): 14 days
# Protocol: In order to evaluate the effects of LTB4 on the production of newly synthesized viral particles, B95-8 cells, in which EBV replicates, was cultured in the presence or absence of LTB4 (to the concentrations indicated in FIG. 3 at days 0, 5 and 10) during 14 days. The cells were grown in RPMI-1640 medium supplemented with 10% heat inactivated fetal bovine serum (FBS) . […] Viral titers were measured by ACIF test on PBMC and expressed in transforming units per ml (TFU/ml). PBMC were then infected with these different EBV preparations and the presence of EBNA was assessed by immunofluorescence (ACIF test).
# [2] = system: coronavirus strain HCoV-OC43; test: Human coronavirus infection in lungs of mice; type: in vivo; details: for coronavirus viral load in lungs, per mouse: day 6
# Protocol: The antiviral effect of LTB4 in controlling pneumonia caused by coronavirus was evaluated in an in vivo model using C57BL/6 mice (8 day old). Mice were infected (n=6/group) intranasally with 10 μl of coronavirus suspension (10^4 PFU, strain HCoV-OC43). Twenty-four hours post-infection, mice were treated intranasally with a placebo or with varying doses of LTB4 (5 ng/dose or 50 ng/dose). Mice were treated once a day during 5 days, and were sacrificed and autopsied on day 6. Lungs of mice were surgically removed and the viral load was titrated on HRT-18 cell line.
# EBV, strain B95-8 = test: EBV-induced clump formation in peripheral blood mononuclear cells; type: cell-based, human; details: EBV-infected PBMC, ten to twelve days of culture
# Protocol: Peripheral blood mononuclear cells (PBMC) were obtained from healthy donors after dextran sedimentation and centrifugation on Ficoll-Paque™ gradients as previously described by Boyum A. (Scand. J. Immunol., 1976, 5(5):9). […] When indicated, EBV-infected PBMC were simultaneously treated (single addition) with different concentrations of LTB4, i.e. 0.3, 3.0 and 30 nM, respectively. […] Cells were cultured in microplates and the clumps were counted in each well. […] NS: nonstimulated cells.
# HIV-1 strain 89.6 = test: HIV ex vivo model, human tonsillar tissue, p24 release; type: cell-based; details: tonsil blocks, LTB4 0.01, 0.1 and 1 μM
# Excerpt: An ex vivo model that retains the cellular organization found in normal human lymphoid tissue was used. The selected lymphoid tissues were tonsils. […] Such an ex vivo model is used to study HIV pathogenesis and potency of antiviral agents such as AZT (Zidovudine) by many laboratories.
# Human tonsillar tissues from two different individuals were removed during routine tonsillectomy and were received within five hours of excision. The tonsils were washed thoroughly with medium supplemented with antibiotics and then sectioned into 2-3 mm blocks. These tissue blocks were placed in culture medium at the air-liquid interface on the top surface of collagen sponge gels and were pretreated for 10 min with the indicated concentrations of LTB4 (0.01, 0.1 and 1 μM). Next, HIV-1 particles (400 TCID50 of HIV-1 strain 89.6) were applied at the top of each tissue block. The next day, the culture medium was completely removed and replaced with fresh medium supplemented with a final concentration of LTB4 (0.01, 0.1 and 1 μM). This step is necessary in order to remove unadsorbed and uninternalized virus particles. Productive HIV-1 infection was assessed every 3 to 4 days by measuring p24 in the culture medium using a viral core p24 antigen enzyme-linked immunosorbent assay. […]
# HSV-1 strain E-377 = test: HSV-1 infection in vivo, hairless mice
# [3] = system: cell cultures of Examples I and II; test: LTB4 cytotoxicity, trypan blue dye exclusion test; type: cell-based, human; details: concentrations up to 30 nM
# Protocol: In cell cultures described in Examples I and II, the cytotoxic effect of LTB4 was assessed by the trypan blue dye exclusion test at concentrations up to 30 nM. […] Cell viability was assessed by the trypan blue exclusion test; values (from 1 experiment representative of 3) represent the mean cell viability in cell cultures (n=24).
# [4] = LTB4 10 μg i.p. days 0, 1, 3, 5, 7, 9
smiles,measurement,setting,value
"CCCCC/C=C\C[C@@H](O)/C=C/C=C/C=C\[C@@H](O)CCCC(=O)O [LTB4, 5S,12R-dihydroxy-6,8,10,14 (Z,E,E,Z)-eicosatetraenoic acid]",percentage of inhibition of HIV-1 particles synthesis,HIV-1; LTB4 30 nM,49% and 50% and 56%
same,percentage of inhibition of HIV-1 particles synthesis,HIV-1; LTB4 100 nM,55% and 61% and 79%
same,inhibition of formation of new HIV-1 particles,HIV-1; concentration not stated (summary),> 55%
same,influenza titers in the lungs versus placebo,[1],significantly decreased; also recorded: reduced
same,inhibition of synthesis of HSV-1 antigen,HSV-1 (strain McIntyre),75%
same,inhibition of formation of new HSV-1 particles,HSV-1,75%
same,inhibition of production of EBV particles (decrease of EBNA antigen positive cells),"EBV; 30 nM LTB4, B95-8 cells",70%
same,inhibition of production of EBV particles (decrease of EBNA antigen positive cells),"EBV; 100 nM LTB4, B95-8 cells",85%
same,inhibition of formation of new EBV particles,"EBV; B95-8 cells, concentration not stated (summary)",> 80%
same,"coronavirus viral load in lungs, per mouse",[2]; LTB4 5 ng/dose/mouse intranasal once a day 5 days,N.D. (below detection limit of 32 TCID50/lungs)
same,"coronavirus viral load in lungs, per mouse",[2]; LTB4 50 ng/dose/mouse intranasal once a day 5 days,N.D. (below detection limit of 32 TCID50/lungs)
same,number of coronavirus particles in lungs versus placebo,[2]; infected mice,significantly reduces; also recorded: reduced
same,formation of clumps,"EBV, strain B95-8",markedly affected the formation of clumps
same,inhibition of the replicative cycle of HIV-1 (p24 release),HIV-1 strain 89.6,more than 75%
same,course of skin lesions,"HSV-1 strain E-377; HSV-1-infected hairless mice, LTB4 i.p.",regressed from day 8; also recorded: smaller and disappeared more rapidly
same,Survival at day 14,"HSV-1 strain E-377; HSV-1-infected, LTB4 10 μg i.p.",100%
same,"Infection-associated symptoms score, Day 4",HSV-1 strain E-377; [4],0
same,"Infection-associated symptoms score, Day 6",HSV-1 strain E-377; [4],0
same,"Infection-associated symptoms score, Day 8",HSV-1 strain E-377; [4],0
same,"Infection-associated symptoms score, Day 10",HSV-1 strain E-377; [4],0
same,"Size of infected skin lesions, Day 4",HSV-1 strain E-377; [4],≤ 0.5 cm
same,"Size of infected skin lesions, Day 6",HSV-1 strain E-377; [4],1-3 cm
same,"Size of infected skin lesions, Day 8",HSV-1 strain E-377; [4],1-3 cm
same,"Size of infected skin lesions, Day 10",HSV-1 strain E-377; [4],≤ 0.2 cm
same,lesions smaller than those of HSV-1-infected untreated Group 2,HSV-1 strain E-377; lesions developed from days 0 to 4,~80%
same,infection-associated symptoms and general status,HSV-1 strain E-377; throughout the experiment,posterior limb inflammation and skinniness were not observed
same,cytotoxic effect / cell viability,[3],no direct cytotoxic effect
